# In ChEMBL document CHEMBL1201862, “PubChem BioAssay data set” (2004):
#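 These data come from cells grown in 96-well plates and exposed to compound for 48 hours at five concentrations. The concentration for 50% growth inhibition is given as GI50.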 Calls of active or inactive are those of the source. No stated cut-off is given here; in the data, active = GI50 up to about 1.1 µM and inactive = higher.
# Key:
# Experiment in all cases: growth of human tumour cells (NCI), 48 h
# [1] = system: A498
# [2] = system: CCRF-CEM
# [3] = system: HOP-92
# [4] = system: Malme-3M
# [5] = system: NCI-H226
# [6] = system: NCI-H460
# [7] = system: OVCAR-4
# [8] = system: OVCAR-5
# [9] = system: SF-295
# [10] = system: SK-MEL-2
# [11] = system: SNB-75
# [12] = system: TK-10
# [13] = system: UACC-62
# [14] = system: CAKI-1
# [15] = system: HCC 2998
Structure (SMILES),GI50 [1],GI50 [2],GI50 [3],GI50 [4],GI50 [5],GI50 [6],GI50 [7],GI50 [8],GI50 [9],GI50 [10],GI50 [11],GI50 [12],GI50 [13],GI50 [14],GI50 [15]
CCC1(CC)C(=O)NC(=S)N=C1N,> 100 µM (inactive),> 100 µM (inactive),> 100 µM (inactive),> 100 µM (inactive),> 100 µM (inactive),> 100 µM (inactive),> 100 µM (inactive),> 100 µM (inactive),> 100 µM (inactive),> 100 µM (inactive),57 µM (inactive),> 100 µM (inactive),> 100 µM (inactive),,
Cc1ccc(NC(=O)CC/C(CC(=O)C(C)(C)C)=N\Nc2ccc([N+](=O)[O-])cc2[N+](=O)[O-])cc1C,,25.2 µM (inactive),27 µM (inactive),,> 100 µM (inactive),56.8 µM (inactive),,> 100 µM (inactive),32.6 µM (inactive),76.4 µM (inactive),,> 100 µM (inactive),32.2 µM (inactive),,
NC1=NN(c2ccccc2)C(=O)C1C(=O)CCC(=O)Nc1cccc(Cl)c1 (stereo not given),> 100 µM (inactive),> 100 µM (inactive),> 100 µM (inactive),> 100 µM (inactive),> 100 µM (inactive),> 100 µM (inactive),> 100 µM (inactive),> 100 µM (inactive),> 100 µM (inactive),> 100 µM (inactive),> 100 µM (inactive),> 100 µM (inactive),> 100 µM (inactive),> 100 µM (inactive),> 100 µM (inactive)
CCOc1ccc(/C(Cl)=C(\C=O)c2ccc(OC)c(OC)c2)cc1OCC,,12.7 µM (inactive),58.2 µM (inactive),37.5 µM (inactive),67.1 µM (inactive),83.4 µM (inactive),38.7 µM (inactive),> 100 µM (inactive),72.6 µM (inactive),> 100 µM (inactive),29.9 µM (inactive),80.9 µM (inactive),33 µM (inactive),> 100 µM (inactive),30 µM (inactive)
COc1cc(C2C(Cl)C(=O)N2NC(=O)Cc2ccccc2)ccc1O (stereo not given),,23.9 µM (inactive),,> 100 µM (inactive),55.6 µM (inactive),> 100 µM (inactive),> 100 µM (inactive),> 100 µM (inactive),> 100 µM (inactive),> 100 µM (inactive),35.8 µM (inactive),> 100 µM (inactive),73.3 µM (inactive),> 100 µM (inactive),57.5 µM (inactive)
N#CC(c1ccccn1)c1nc2ccccc2[nH]1 (stereo not given),> 100 µM (inactive),> 100 µM (inactive),,> 100 µM (inactive),> 100 µM (inactive),85.5 µM (inactive),81.1 µM (inactive),> 100 µM (inactive),> 100 µM (inactive),> 100 µM (inactive),49.3 µM (inactive),> 100 µM (inactive),70.3 µM (inactive),> 100 µM (inactive),> 100 µM (inactive)
O=c1cc(-c2ccccc2)nc(/C=C(\O)c2ccncc2)n1-c1ccccc1,> 100 µM (inactive),> 100 µM (inactive),> 100 µM (inactive),> 100 µM (inactive),> 100 µM (inactive),> 100 µM (inactive),> 100 µM (inactive),> 100 µM (inactive),> 100 µM (inactive),> 100 µM (inactive),70.1 µM (inactive),> 100 µM (inactive),> 100 µM (inactive),> 100 µM (inactive),> 100 µM (inactive)
OCC(O)C(OC1OC(CO)C(O)C(O)C1O)c1nn(-c2ccc(F)cc2)c2nc3cc(Cl)c(Cl)cc3cc12 (stereo not given),> 100 µM (inactive),> 100 µM (inactive),,> 100 µM (inactive),,> 100 µM (inactive),> 100 µM (inactive),> 100 µM (inactive),> 100 µM (inactive),,> 100 µM (inactive),> 100 µM (inactive),> 100 µM (inactive),,> 100 µM (inactive)
CC(C)[C@H](COC(C)(C)C)/N=C/N1CSc2ccccc21,46.1 µM (inactive),33.1 µM (inactive),17.6 µM (inactive),,48.3 µM (inactive),33 µM (inactive),27.9 µM (inactive),> 100 µM (inactive),24.4 µM (inactive),36.2 µM (inactive),30.3 µM (inactive),51.5 µM (inactive),48.8 µM (inactive),,47.3 µM (inactive)
CCCCCCCCCCCCC(Br)C(C)=O (stereo not given),> 100 µM (inactive),> 100 µM (inactive),> 100 µM (inactive),> 100 µM (inactive),> 100 µM (inactive),> 100 µM (inactive),> 100 µM (inactive),> 100 µM (inactive),> 100 µM (inactive),> 100 µM (inactive),,> 100 µM (inactive),> 100 µM (inactive),,> 100 µM (inactive)
ClCc1ccc(C2OCCO2)cc1,20.8 µM (inactive),> 37.7 µM (inactive),18.8 µM (inactive),20.3 µM (inactive),16.9 µM (inactive),19.2 µM (inactive),,> 48.9 µM (inactive),17.9 µM (inactive),21.1 µM (inactive),22.4 µM (inactive),> 49 µM (inactive),> 36.6 µM (inactive),,17.8 µM (inactive)
COc1ccc(/C=N/N=C(\N)NO)c(Cl)c1O,,14.7 µM (inactive),35.2 µM (inactive),28.4 µM (inactive),8.32 µM (inactive),,15.8 µM (inactive),1.91 µM (inactive),4.9 µM (inactive),14.2 µM (inactive),,,12.9 µM (inactive),10.3 µM (inactive),14.6 µM (inactive)
Cc1ccccc1NC(=O)/C=N/O,> 100 µM (inactive),< 0.01 µM (active),,> 100 µM (inactive),> 100 µM (inactive),,> 100 µM (inactive),> 100 µM (inactive),> 100 µM (inactive),> 100 µM (inactive),> 100 µM (inactive),> 100 µM (inactive),14.6 µM (inactive),> 100 µM (inactive),> 100 µM (inactive)
COC(c1ccccc1)C(c1ccccc1)N1CCOCC1 (stereo not given),> 100 µM (inactive),> 100 µM (inactive),> 100 µM (inactive),> 100 µM (inactive),> 100 µM (inactive),> 100 µM (inactive),> 100 µM (inactive),> 100 µM (inactive),> 100 µM (inactive),> 100 µM (inactive),> 100 µM (inactive),> 100 µM (inactive),> 100 µM (inactive),> 100 µM (inactive),> 100 µM (inactive)
O=C1C(Cl)C(c2ccccc2O)N1n1cnc2ccccc2c1=O (stereo not given),,19.8 µM (inactive),,75.3 µM (inactive),62.2 µM (inactive),35.2 µM (inactive),23.7 µM (inactive),> 100 µM (inactive),53.6 µM (inactive),> 100 µM (inactive),20.4 µM (inactive),> 100 µM (inactive),44.3 µM (inactive),37.8 µM (inactive),> 100 µM (inactive)
COC1CCC(OS(C)(=O)=O)C(CO)O1 (stereo not given),,> 100 µM (inactive),> 100 µM (inactive),> 100 µM (inactive),,> 100 µM (inactive),,> 100 µM (inactive),> 100 µM (inactive),> 100 µM (inactive),> 100 µM (inactive),> 100 µM (inactive),> 100 µM (inactive),,> 100 µM (inactive)
O=C(N/C(=C\c1ccc([N+](=O)[O-])cc1)c1nc2cc(Cl)ccc2[nH]1)c1ccccc1,,18.6 µM (inactive),14 µM (inactive),35.1 µM (inactive),,,15.7 µM (inactive),11.3 µM (inactive),23.8 µM (inactive),21.9 µM (inactive),,32.4 µM (inactive),18.7 µM (inactive),24.4 µM (inactive),18 µM (inactive)
CCNC(=O)COc1ccc(Cl)cc1Cl,> 100 µM (inactive),,> 100 µM (inactive),> 100 µM (inactive),> 100 µM (inactive),> 100 µM (inactive),,> 100 µM (inactive),> 100 µM (inactive),> 100 µM (inactive),> 100 µM (inactive),,,> 100 µM (inactive),
Cc1ccc(NC(=O)NC23CC4CC(CC(F)(C4)C2)C3)cc1,> 100 µM (inactive),56.4 µM (inactive),55.2 µM (inactive),> 100 µM (inactive),,> 100 µM (inactive),,> 100 µM (inactive),,> 100 µM (inactive),25.2 µM (inactive),> 100 µM (inactive),69.3 µM (inactive),,> 100 µM (inactive)
CS/C(=N\c1ccccc1Cl)NC(=O)c1ccc(Br)cc1,,> 10 µM (inactive),< 0.01 µM (active),33.9 µM (inactive),41 µM (inactive),> 100 µM (inactive),18.2 µM (inactive),> 100 µM (inactive),59.3 µM (inactive),66.7 µM (inactive),,28.2 µM (inactive),28.4 µM (inactive),32.1 µM (inactive),> 100 µM (inactive)
Cc1ccccc1NC(=O)/C(=N\NC(N)=S)C(C#N)c1ccccc1 (stereo not given),> 100 µM (inactive),> 100 µM (inactive),> 100 µM (inactive),> 100 µM (inactive),> 100 µM (inactive),> 100 µM (inactive),> 100 µM (inactive),> 100 µM (inactive),> 100 µM (inactive),> 100 µM (inactive),> 100 µM (inactive),> 100 µM (inactive),> 100 µM (inactive),,> 100 µM (inactive)
